Tests used:
[1] = system: acetaminophen-induced liver damage; experiment: Effect on acetaminophen-induced liver damage; type: in vivo, rat; settings: for s-GOT, mean ± S.E. / s-GPT, mean ± S.E. / s-GOT percent inhibition (figure in parentheses) / s-GPT percent inhibition (figure in parentheses): male SD rats; for s-GOT, mean ± S.E. / s-GPT, mean ± S.E.: 0.5 mmole/kg orally 1 hour before acetaminophen 300 mg/kg i.p., serum after 24 hours; for s-GOT percent inhibition (figure in parentheses) / s-GPT percent inhibition (figure in parentheses): vs physiological saline control
Method: Method: Male SD rats (body weights about 180 g) purchased from Shizuoka Laboratory Animal Center were used as test animals. The test substance was orally administered (0.5 mmole/kg), and after 1 hour, acetaminophen 300 mg/kg was intraperitoneally administered. After 24 hours, the blood was drawn from the abdominal aorta of each rat and the serum was separated and determined for s-GOT and GPT.

[2] = system: carrageenin-induced conjunctival edema; experiment: Effect on carrageenin-induced conjunctival edema; type: in vivo, rat; settings: male Wistar rats; for % Inhibition (conjunctival edema): 30 mg/kg i.v., vs physiological saline control; for Conjunctival edema weight (mg ± S.E): test substance 30 mg/5 ml/kg i.v. 1 minute before subconjunctival 1% carrageenin, n=10
Method: Method: Male Wistar rats (body weight about 120 g) purchased from Shizuoka Laboratory Animal Center were used as test animals. Each animal was anesthesized with pentobarbital 6 mg/kg i.p. and a solution of the test substance in physiological saline was intravenously administered (30 mg/5 ml/kg). After 1 minute, 50 μl of a 1% solution of carrageenin in physiological saline was injected subconjunctivally. After 3 minutes, the rat was sacrificed and the carrageenin-induced conjunctival edema was weighed.

[3] = system: rat back passive anaphylactic reaction; experiment: Effect on rat back passive anaphylactic reaction; type: in vivo; settings: male Wistar rats; for % Inhibition (passive anaphylactic reaction): 30 mg/kg i.v., vs physiological saline control; for Absorbance (extracted Evans blue dye), mean ± S.E.: 30 mg/kg into caudal vein 1 minute before antigen, dye extracted after 30 minutes, n=5
Method: Method: Male Wistar rats (body weight about 130 g) purchased from Shizuoka Laboratory Animal Center were used as test animals. The back hair of each rat was clipped off and the antiserum was injected intradermally at the back. After 3 days, the test substance 30 mg/kg was injected into the caudal vein (control: physiological saline). One minute later, 1 ml of a 50:50 mixture of 1% egg white albumin and 2% Evans blue in physiological saline was intravenously administered as the antigen to induce a passive anaphylactic reaction. After 30 minutes, the rat was sacrificed, the stained area of the rat back was isolated the dye was extracted with 10 ml of formamide to determine the amount of the dye.

Molecule | Efficacy on acetaminophen-induced liver damage (in words) ([1]; 0.5 mmole/kg orally, rats) | s-GOT, mean ± S.E. [1] | s-GPT, mean ± S.E. [1] | s-GOT percent inhibition (figure in parentheses) ([1]; 0.5 mmole/kg orally) | s-GPT percent inhibition (figure in parentheses) ([1]; 0.5 mmole/kg orally) | % Inhibition (conjunctival edema) [2] | Conjunctival edema weight (mg ± S.E) [2] | % Inhibition (passive anaphylactic reaction) [3] | Absorbance (extracted Evans blue dye), mean ± S.E. [3]
CCCCOC(=O)CC(CSC[C@H](NC(=O)CC[C@H](N)C(=O)O)C(=O)NCC(=O)OC(C)C)C(=O)OCCCC (stereo partly drawn) [R1 = C3 H7, R2 = R3 = C4 H9, S-(2,3-Dicarbo-n-butoxypropyl)glutathione isopropyl ester] | significant effect | 309 ± 105 | 86 ± 31 | 88.4% | 70.9% | – | – | – | –
CC(C)OC(=O)CNC(=O)[C@H](CSC(CC(N)=O)C(N)=O)NC(=O)CC[C@H](N)C(=O)O (stereo partly drawn) [R1 = C3 H7, R2 = R3 = NH2, S-(1,2-Dicarbamoylethyl)glutathioneisopropyl ester] | – | 1760 ± 911 | 740 ± 394 | 59.8% | 46.7% | 26.2% | 58.2 ± 1.4 mg | 43.6% | 0.492 ± 0.083
CCOC(=O)CC(SC[C@H](NC(=O)CC[C@H](N)C(=O)O)C(=O)NCC(=O)OC(C)C)C(=O)OCC (stereo partly drawn) [R1 = C3 H7, R2 = R3 = OC2 H5, γ-L-Glutamyl-[S-(1,2-dicarbethoxyethyl)]-L-cystinylglycine isopropyl ester] | – | 394 ± 178 | 111 ± 51 | 91.0% | 92.0% | 23.7% | 60.2 ± 1.2 mg | 44.6% | 0.484 ± 0.093
CCCCOC(=O)CC(SC[C@H](NC(=O)CC[C@H](N)C(=O)O)C(=O)NCC(=O)OC(C)C)C(=O)OCCCC (stereo partly drawn) [R1 = C3 H7, R2 = R3 = OC4 H9, S-(1,2-Dicarbo-n-butoxyethyl)glutathione isopropyl ester] | – | 178 ± 64 | 45 ± 11 | 95.9% | 96.8% | 1.9% | 77.4 ± 4.0 mg | 43.6% | 0.492 ± 0.094
CC(C)OC(=O)CNC(=O)[C@H](CSC1CC(=O)NC1=O)NC(=O)CC[C@H](N)C(=O)O (stereo partly drawn) [R1 = C3 H7, R2 R3 = NH, S-[(1,2-Dicarboximido)ethyl]glutathione isopropyl ester] | – | – | – | – | – | 21.4% | 62.0 ± 1.6 mg | 26.5% | 0.642 ± 0.141
NC(=O)CC(SC[C@H](NC(=O)CC[C@H](N)C(=O)O)C(=O)NCC(=O)O)C(N)=O (stereo partly drawn) [R1 = H, R2 = R3 = NH2, S-(1,2-Dicarbamoylethyl)glutathione] | – | 591 ± 155 | 147 ± 48 | 78.9% | 79.1% | 5.4% | 67.1 ± 3.8 mg | 35.3% | 0.565 ± 0.162
CCN1C(=O)CC(SC[C@H](NC(=O)CC[C@H](N)C(=O)O)C(=O)NCC(=O)O)C1=O (stereo partly drawn) [R1 = H, R2 R3 = N--C2 H5, S-[N-Ethyl-2,5-dioxopyrrolidin-3-yl]glutathione] | – | – | – | – | – | 9.9% | 63.9 ± 3.6 mg | 41.1% | 0.514 ± 0.050
N[C@@H](CCC(=O)N[C@@H](CSC1CC(=O)NC1=O)C(=O)NCC(=O)O)C(=O)O (stereo partly drawn) [R1 = H, R2 R3 = NH, S-[(1,2-Dicarboximido)ethyl]glutathione] | – | 1288 ± 316 | 351 ± 82 | 54.0% | 50.1% | 9.9% | 63.9 ± 4.1 mg | 47.4% | 0.459 ± 0.104
S-(1,2-Dicarboxyethyl)glutathioneisopropyl ester [R1 = C3 H7, R2 = R3 = OH] | – | 929 ± 500 | 404 ± 278 | 78.8% | 70.9% | 19.0% | 63.9 ± 3.6 mg | 47.7% | 0.457 ± 0.055
S-[1-(or 2)Carboxy-2-(or 1)carbamoylethyl]glutathione | – | – | – | – | – | 9.6% | 64.1 ± 4.2 mg | 43.4% | 0.494 ± 0.066

Source: patent publication US5541162A, “Glutathione derivatives” (Senju Pharmaceutical Co., Ltd., priority 1990, dated 1996)
